US8470964B2, “Peptides derived from NCAM (FGLs)” (Enkam Pharmaceuticals A/S, priority 2007, dated 2013)
Several values for one entry are separate records, joined by “and”; a condition that tells them apart may be missing. Equal entries are not always repeated. Where no end group is shown, it is not given here.

Tests used:
[1] = test system: intact adult rats; assay: Social Recognition Test (SRT), short-term social memory, subcutaneous administration; assay type: in vivo, rat
Procedure: (§1) FIG. 3. Effects of a single administration of vehicle or of FGLs on short-term social memory as evaluated in the Social Recognition Test (SRT). FGLs (8.0 mg/kg) or vehicle (sterile water, 4.0 ml/kg) was administered s.c. and the rats were tested twice with the initial trial of SRT performed 1 h and 73 h after administration. The juvenile rat was presented twice with an inter-trial interval of 2 hours. In each experimental group data were obtained from 9 to 11 rats. Results are shown as Mean and SEM of recognition ratio (RR). […] Comparisons of RR values to a hypothetical value 0.50 were carried using one-sample t-test. **P<0.01.
as §1, with “4.” for “3.”, “(1.0, 2.0, 4.0 and 8.0” for “(8.0”, “24” for “73”
FIG. 5. Effects of subcutaneous administration of FGLs, FGLL and VEB1 (2 administrations at the stated doses) on short-term social memory as evaluated in the Social Recognition Test (SRT). Results are shown as Mean and SEM of recognition ratio (RR). […] Comparisons of RR values to a hypothetical value 0.50 were carried using one-sample t-test.
The activity of FGLs, administered subcutaneously, in enhancing social memory in intact adult rats was examined in three studies. In both studies the test system was the Social Recognition Test (SRT), which is a reliable test for the evaluation of compounds active on short-term memory (Dantzer et al., 1987). In our studies we used a protocol of SRT were a juvenile rat was presented to the test rat twice, with an inter-trial interval (ITI) of 2 hours between the two tests. […] In the first study the rats received a single subcutaneous dose (8.0 mg/kg) of FGLs and were tested 1 hour and 73 hours after administration.
In the second study the rats received a single subcutaneous dose of 1.0, 2.0, 4.0 or 8.0 mg/kg of FGLs and were tested 1 hour and 24 hours after administration.
In the third study the dose response effects (0.25, 0.80, 2.50 and 8.0 mg/kg) of subcutaneous administration of FGLs were tested. In parallel were also tested FGLL and VEB1, another truncated form of FGLL. The peptides were administered twice, 24 and 5 hours before the first SRT, and the rats were tested 5 hour and 77 hours after the last administration

[2] = test system: (25-35) β-amyloid peptide fragment induced cognitive deficits model in rats; assay: (25-35) β-amyloid induced cognitive deficits, intranasal administration, SRT; assay type: in vivo, rat; details: 1.28 mg/kg intranasally daily, 15 doses day 7 to 21; SRT 22 days after β-amyloid injection
From the text: FIG. 9. Effects of intranasal administration of FGLs on the β-amyloid neurotoxicity induced deficit on performance in the Social Recognition Test. Rats received an intranasal administration of FGLs at the stated doses or vehicle daily at days 7 to 21 after i.c.v. administration of the (25-35) β-amyloid (A-β) fragment. 8-10 animals per group. Results are expressed as Means and SEM of Recognition Ratio and analyzed by one-sample t-test: **p<0.05.
In this study, the (25-35) β-amyloid peptide fragment induced cognitive deficits model in rats was used to investigate the dose-response (0.08, 0.32 or 1.28 mg/kg) effect of FGLs administered intranasally daily for 15 doses from day 7 to day 21 post β-amyloid peptide i.c.v. injection. The social memory performance was evaluated using the SRT, 22 days after the β-amyloid injection. A statistically significant impairment of short-term memory was observed as a consequence of the (25-35) β-amyloid neurotoxicity in the rats receiving the (25-35) β-amyloid fragment plus vehicle.

[3] = Visual appearance of peptide diluted in water; assay type: physicochemical; details: 100 mg/ml in water, room temperature
Procedure: FIG. 11. Visual appearance of FGLL and FGLs. 100 mg of FGLL and FGLs, respectively were diluted in 1 ml water at room temperature for visual inspection.
FGFL and FGFs were diluted in water at a concentration of 100 mg/ml for visual inspection (FIG. 11). […] In another experiment were 5 mg of FGLL and FGLs respectively diluted in 1 ml water or PBS at room temperature. Light microscopy pictures of the water and PBS solutions of FGLL and FGLs can be seen in FIG. 12. In FIG. 13. is a 90° light-scattering spectra of 100 mg/ml FGFL and FGLs in water showing the difference in intensity between the FGF L and the FGLs, solution.

[4] = s.c., administered twice, 77 hours after the last administration

FGLs: two identical 11 amino acid peptides (VAENQQGKSKA), forming a dimer through a linker molecule (iminodiacetic acid); peptide amide (VAENQQGKSKA-NH2; not fully specified; also: dimer of two identical peptides through iminodiacetic acid linker, attachment site not given here)
duration of mnemotropic effects after administration ([1]; s.c. administration, short-term social memory): at least 72 hours | minimum effective dose in SRT ([1]; s.c., administered twice (24 and 5 hours before first SRT), 5 hours post administration, intact rats): 0.80 mg/kg and 0.8 mg/kg | dose with significant social memory enhancing effect in SRT [1, 4]: 2.50 mg/kg | social memory enhancing effect in SRT [1, 4]: Significant memory enhancing effects | memory enhancing effect in SRT (recognition ratio) ([1]; single s.c. dose 8.0 mg/kg, tested 1 hour after administration, inter-trial interval 2 hours): significant memory enhancing effect | memory enhancing effect in SRT (recognition ratio) ([1]; single s.c. dose 8.0 mg/kg, tested 73 hours after administration, inter-trial interval 2 hours): tendency to significance (p=0.06) | memory enhancing effect in SRT (recognition ratio) ([1]; single s.c. dose 2.0, 4.0 and 8.0 mg/kg, 1 hour post administration): significant memory enhancing effect | memory enhancing effect in SRT (recognition ratio) ([1]; single s.c. dose 4.0 and 8.0 mg/kg, 24 hours after administration): significant memory enhancing effect | deficit in social memory performance (SRT) compared with vehicle treated rats [2]: significant (p<0.01) amelioration of the deficit | visual appearance of solution [3]: remained clear
